Patent publication US11180463B2, “Thiazole inner salt compounds, and preparation methods and uses thereof” (Institute of Pharmacology and Toxicology Academy of …, priority 2013, dated 2021)
Values joined by “and” are separate entries in the source; they are usually repeats but may differ in a detail not shown here. Equal values may be shown once. Where a name gives a salt, the structure may show the parent alone. Read-outs that look alike come from different tables or passages of the source.

Legend:
[1] = Accelerated stability test (RT40° C., RH75%); format: physicochemical; conditions: for Purity* (%) / Weight gain (%) / Appearance and color: RT40° C., RH75%; for Accelerated test, 3 months: appearance after 3 months at 40° C., humidity 75%, three batches
Description: Three batches of sample (prepared according to Example 2) were taken according to the Chinese Pharmacopoeia, 2010 Edition, packaged like packaging for sale (high-density polyethylene bags were used for drug packaging), placed under conditions of RT40° C., RH75% (NaCl saturated solution) to carry out accelerated test, after 1, 2, 3, 6 months, sampled for observation of the compound of Formula I and the compound of Formula A, compared to the data of the 0th day, and the results were shown in Table 1 and Table 2.
One batches of sample as prepared according to Example 3 were taken, packaged like packaging for sale (high-density polyethylene bags were used for drug packaging), placed under conditions of RT40° C., RH75% (NaCl saturated solution), after 1, 2, 3 months, sampled and compared to the data of the 0th day, and the results were shown in Table 3.
Three batches of sample of the compound of Formula A were taken according to the Chinese Pharmacopoeia, 2010 Edition, packaged like packaging for sale (high-density polyethylene bags were used for drug packaging), placed under conditions of RT40° C., RH75% (NaCl saturated solution), after 1, 2, 3 months, sampled and compared to the data of the 0th day, and the results were shown in Table 1 and Table 4.

[2] = tested on: RBC surface cross-linked IgG; assay: In vitro breaking erythrocytic surface cross-linked IgG (ELISA, lytic rate); format: cell-based; conditions: RBC of 16 weeks diabetic rats, 37° C., 16-18 h
Source text: Because erythrocytic surface cross-linked IgG is a typical AGEs cross-linked structure, the determination of degree that a compound breaks erythrocytic surface cross-linked IgG is well known as a better method for evaluating the ability of the compound in breaking AGEs cross-linked structure (Bruceh. R. Wolffenbuttel, Breakers of advanced glycation end products restore large artery properties in experimental diabetes, Natl. Acad. Sci. U.S.A 1998, 95, 4630).
Method for treating blood cells: 16 weeks diabetic rats were narcotized, blood samples were got from their carotid arteries, added with heparin for anticoagulation, centrifuged at 4° C. and 1000 g for 3 min, the lower layer RBC (red blood cells) was taken; washed with 0.1 mol/L PBS (pH7.4) for 3 times, centrifuged each time at 4° C. and 1000 g for 3 min; and the lower layer RBC was used for test.
In vitro administration method: 0.1 mol/L isotonic PBS (phosphate buffer) (pH7.4) was used as negative control, each of the compounds to be tested formed solutions with different concentrations using the buffer. Into per 900 μL of solution or solvent, 100 μL RBC was added, slightly shook at 37° C. for 16-18 h; centrifuged at 1000 g, 4° C. for 3 min, the supernatant was discarded, the plate was washed with 0.1 mol/L PBS (pH7.4) for 4 times to remove residual compound; centrifuged at 1000 g, 4° C. for 3 min, the lower layer RBC was diluted in ratio of 1:100 for ELISA determination.
Procedure for determination of RBC surface cross-linked IgG content via immunoadsorption method: Multiscreen-HA 0.45 μm 96-well plate (Millipore), sealed with Superblock (300 μL/well), 37° C., 1 h; then drained under 5 mmHg of negative pressure, the whole plate was washed with PBST for 3 times, washed with 0.1M PBS (pH7.4) for twice, shaking plate each time for 1 min; added with RBC (50 μL/well) to be tested, another PBS background control well (OD0) was set; drained under negative pressure; washed with 150 μL of 0.1 mol/L PBS (pH7.4) for 4 times, shaking plate each time for 1 min. After being drained under negative pressure, the 1:500 diluted goat-anti-mouse IgG-HRP (50 μL/well) was added, stood at room temperature for 2 h, drained; washed with 0.1 mol/L PBS (pH7.4), 150 μL/well, for 3 times, shaking plate each time for 1 min; drained; added with o-phenylenediamine (OPD) substrate developing solution (100 μL/well), stood at room temperature in dark for 30 min, the reaction was terminated with 2 mol/L H2SO4 (100 μL/well); the reaction solution (150 μL/well) was sucked out quickly and transferred to a normal 96-well ELISA plate, and OD values were determined under 490 nm.
Calculation of Lytic Rates of the Compounds to be Tested: […]

[3] = tested on: rats with diabetes accompanied by hypertension; assay: 24 h urine volume/water intake in rats with diabetes accompanied by hypertension; format: in vivo; conditions: 3rd week
Description: In the third week of administration, the rats of each group were solely placed and fed in metabolism cage, and the water intake and urine volume within 24 hours on the 19th, 20th and 21st day were recorded.
In the 3rd week of administering the compound of Example 2, Vurine/Vwater-intake values of rats in 24 hours were calculated.

[4] = tested on: rats with diabetes accompanied by hypertension; assay: Blood pressure monitoring, compound of Example 2 alone (Example 7); format: in vivo; conditions: after 4 weeks
[5] = tested on: long-term diabetic rats; conditions: in vivo, cited from earlier work
[6] = tested on: rats with diabetes accompanied by hypertension
Description: In the meantime, pure diabetes group and normal control group of the same week-age were also set. The compound of Example 2 (36 mg/kg) was dissolved in distilled water just before use, administered intragastrically, once per day, for 5 weeks.

[7] = 36 mg/kg intragastrically once per day, Mean ± SD, n = 12
[8] = no significant change vs. model

3-methylcarbonyloxy-4-methyl-thiazole inner salt monohydrate [Example 3]
Purity* (%) ([1]; 0th month): 99.9%
Weight gain (%) ([1]; 0th month): 0%
Purity* (%) ([1]; 1st month): 99.8%
Weight gain (%) ([1]; 1st month): 0.04%
Purity* (%) ([1]; 2nd month): 99.7%
Weight gain (%) ([1]; 2nd month): 0.06%
Purity* (%) ([1]; 3rd month): 99.7%
Weight gain (%) ([1]; 3rd month): 0.07%

Cc1csc[n+]1CC(=O)[O-] (as salt: salt) [Example 2]
melting point: 169 °C

Cc1csc[n+]1CC(=O)[O-] [Example 2]
Lytic rate (decrease of OD value, %) ([2]; 1 μM): 27.1 ± 2.2%
Lytic rate (decrease of OD value, %) ([2]; 10 μM): 27.5 ± 2.9%
Lytic rate (decrease of OD value, %) ([2]; 30 μM): 23.2 ± 5.1%
Lytic rate (decrease of OD value, %) ([2]; 100 μM): 27.9 ± 3.0%
Vurine [3, 7]: 318.3 ± 106.0 mL
Vwater-intake [3, 7]: 375.0 ± 123.6 mL
Vurine/Vwater-intake ([3]; 36 mg/kg, P < 0.01 vs. model): 0.86 ± 0.05
Vurine/bodyweight ([3]; first line so headed (r8), 36 mg/kg): 0.88 ± 0.31 mL/g
Vurine/bodyweight ([3]; second line so headed (r9), 36 mg/kg): 1.03 ± 0.34 mL/g
Purity* (%) ([1]; 0th month): 100.0% and 99.6% and 99.8%
Weight gain (%) ([1]; 0th month): 0%
Purity* (%) ([1]; 1st month): 99.7% and 99.8%
Weight gain (%) ([1]; 1st month): 0.11% and 0.12%
Purity* (%) ([1]; 2nd month): 99.6% and 99.2%
Weight gain (%) ([1]; 2nd month): 0.12% and 0.13%
Purity* (%) ([1]; 3rd month): 99.8% and 99.3%
Weight gain (%) ([1]; 3rd month): 0.15% and 0.14% and 0.13%
Purity* (%) ([1]; 6th month): 99.9% and 99.6% and 99.8%
Weight gain (%) ([1]; 6th month): 0.18% and 0.15%
Accelerated test, 3 months [1]: no obvious appearance change no obvious appearance change no obvious appearance change
systolic pressure variable coefficient (CV) during time period 10:00-20:00 ([4]; in comparison with the model group, P<0.01): significantly decrease
average heart rate during time period 10:00-20:00 [4, 8]: 255±17 beats/min
average pulse-pressure difference during time period 10:00-20:00 [4, 8]: 46.5±5.7 mmHg

Cc1csc[n+]1CC(=O)O.[Na+] [Formula A, 3-carboxymethyl-4metyl-bromothiazolium sodium salt, reference compound]
AGEs fluorescence contents of aorta, myocardium of left ventricle and kidney ([5]; long-term diabetic rats): significantly reduce
aorta compliance of diabetic rats ([5]; rat): improved
cardiac output ([5]; rat): increased
left ventricular function ([5]; rat): significantly improved
Weight gain (%) ([1]; 0th month): 0%
Purity* (%) ([1]; 0th month, sodium salt): 98.8% and 99.1% and 98.7%
Appearance and color ([1]; 1st month): brown, tacky
Purity* (%) ([1]; 1st month, sodium salt): 85.1% and 82.7% and 81.6%
Weight gain (%) ([1]; 1st month, sodium salt): 18.0% and 18.5% and 19.0%
Appearance and color ([1]; 2nd month): dark brown,
Purity* (%) ([1]; 2nd month, sodium salt): 60.6% and 59.8% and 60.3%
Weight gain (%) ([1]; 2nd month, sodium salt): 32.6% and 33.6% and 33.8%
Appearance and color ([1]; 3rd month): dark brown,
Purity* (%) ([1]; 3rd month, sodium salt): 51.2% and 48.5% and 54.6%
Weight gain (%) ([1]; 3rd month, sodium salt): 41.5% and 42.1% and 44.0%
Accelerated test, 3 months ([1]; listed as drawing 8, sodium salt): caking, appearance changing into dark brown caking, appearance changing into dark brown caking, appearance changing into dark brown
Accelerated test, 3 months ([1]; sodium salt): easy to absorb moisture, agglomerate and change color

COC(=O)C1=C(C)NC(C)=C(C(=O)OC)C1c1ccccc1[N+](=O)[O-] [Nifedipine]
systolic pressure variable coefficient (CV) ([6]; after administration for 1-5 h): 0.047±0.017
ejection time (ET) ([6]; after administration for 20 min): 71.8 ± 4.2 ms
average systolic pressure ([6]; after administration for 1 h): 155.2±14.9 mmHg
pressure drop ΔSBP ([6]; after administration for 1.5 h): 25.3±9.3 mmHg
average pulse-pressure difference (PH) ([6]; after administration for 5 h): 48.1±5.1 mmHg
average systolic pressure ([6]; after administration for 5 h): 166.0±15.0 mmHg
ejection time (ET) ([6]; after administration for 5 h): 81.1 ± 5.0 ms
pressure drop ΔSBP ([6]; after administration for 5 h): 15.9±9.3 mmHg
average pulse-pressure difference (PH) ([6]; after administration for 10 h): 48.7±5.2 mmHg
average systolic pressure ([6]; after administration for 10 h): 179.0±14.1 mmHg
pressure drop ΔSBP ([6]; after administration for 10 h): 1.19±3.5 mmHg
time after administration at which the systolic pressure started to rise ([6]; rat, in vivo): 2 h
time after which pulse-pressure difference (PH) started to rise ([6]; rat, in vivo): 1 h
time at which ET recovered the level before administration ([6]; rat, in vivo): 5 h
